In paper PMC10035904, “Synthesis of novel sulphamethoxazole derivatives and exploration of their anticancer and antimicrobial properties” (PLOS ONE, 2023):
≈ marks a conversion by molar mass, not a printed value.

How the values were obtained:
Format in all cases: cell-based
[1] = test system: human prostate carcinoma cell line PPC-1; assay: MTT cell viability assay, PPC-1; details: 72 hours of incubation, n = 3, read-out: EC50 against PPC-1
Description: (§1) The human clear cell renal cell carcinoma line (CaKi-1) was obtained from American Type Culture Collection (ATCC, Manassas, VA). The human prostate carcinoma cell line PPC-1 was originally obtained from ATCC and kindly provided by Prof. Tambet Teesalu (University of Tartu, Estonia). Human foreskin fibroblasts (HF) CRL-4001 were originally obtained from ATCC and kindly provided by Prof. Helder Santos (University of Helsinki, Finland). Cells were cultured in Dulbecco’s Modified Eagle’s GlutaMAX medium (Gibco (Carlsbad, CA, USA) supplemented with 10,000 U/mL penicillin, 10 mg/mL streptomycin (Gibco), and 10% fetal bovine serum (Gibco). During cell passaging, Tryple Express reagent (Gibco) was used for cell detachment. Cell cultures were grown at 37°C in a humidified atmosphere containing 5% CO2. They were used until the passage of 20.
(§2) The effect of synthesized compounds on cell viability was studied using 3-(4,5-dimethylthiazol-2-yl)-2,5-diphenyltetrazolium bromide (MTT; Sigma-Aldrich Co., St Louis, MO, USA) assay, as described elsewhere. […] The absorbance was measured at 570 and 630 nm using a multi-detection microplate reader. The compound effect on cell viability was calculated using a formula (1): Relativecellviability%=A−A0/ANC−A0 (1) Where: […]

[2] = test system: human clear cell renal cell carcinoma line (CaKi-1); assay: MTT cell viability assay, CaKi-1; details: 72 hours of incubation, n = 3, read-out: EC50 against CaKi-1
Description: as §1, §2

[3] = test system: Human foreskin fibroblasts (HF) CRL-4001; assay: MTT cell viability assay, fibroblasts HF; details: Fibroblast, 72 hours of incubation, n = 3, read-out: EC50 against HF
Description: as §1, §2

[4] = test system: Klebsiella pneumoniae ATCC 33499; assay: Serial broth dilution in liquid medium, K. pneumoniae; details: ATCC33499, Mueller-Hinton broth, 24 hours, n = 3
Description: (§3) Antibacterial and antifungal susceptibility to the compound 16b was tested using a serial broth dilution technique in Mueller-Hinton broth II (BBL, Cockeysville, USA), as described elsewhere. All procedures were done in aseptic conditions. Standard bacterial and fungal cultures were used: Staphylococcus aureus ATCC 25923, Staphylococcus epidermidis ATCC 12228, Escherichia coli ATCC 25922, Enterococcus faecalis ATCC 29212, Klebsiella pneumoniae ATCC 33499, Pseudomonas aeruginosa ATCC 27853, Proteus mirabilis ATCC 12459, Bacillus cereus ATCC 8035, and Candida albicans ATCC 60193. Standard cultures of nonsporic bacteria S. aureus, S. epidermidis, E. coli, E. faecalis, K. pneumoniae, P. aeruginosa and P. mirabilis were cultivated for 20–24 hours at 37°C in Mueller-Hinton Agar (BBL, Cockeysville, USA). A bacterial suspension was prepared from cultivated bacterial cultures in physiological solution according to turbidity standard 0.5 McFarland. Standard culture of sporic bacteria B. cereus was cultivated for 7 days at 37°C in Mueller-Hinton II Agar. […] Then the absorbance was measured at 600 nm using a multi-detection microplate reader. […]

[5] = test system: Proteus mirabilis ATCC 12459; assay: Serial broth dilution in liquid medium, P. mirabilis; details: ATCC12459, Mueller-Hinton broth, 24 hours, n = 3
Description: as §3

[6] = test system: Staphylococcus aureus ATCC 25923; assay: Serial broth dilution in liquid medium, S. aureus; details: Mueller-Hinton broth, 24 hours; result in words
Description: as §3

[7] = test system: Staphylococcus epidermidis ATCC 12228; assay: Serial broth dilution in liquid medium, S. epidermidis; details: Mueller-Hinton broth, 24 hours; result in words
Description: as §3

[8] = test system: Klebsiella pneumoniae ATCC 33499; assay: Serial dilution on solid agar, K. pneumoniae; details: ATCC33499, solid Mueller-Hinton agar, 24 hours
Description: (§4) Antimicrobial activity of compound 16b on solid agar was tested using the same microbial cultures, and the same suspension preparation procedure, as described in above section. All procedures were done in aseptic conditions.
(§5) Mueller-Hinton agar was boiled and kept at to 37 °C during the whole procedure. Compound 16b solution was prepared in DMSO right before experiment. The Agar was mixed with compound solution at different ratios to make the final compound concentrations of 1 mM, 400 μM, 200 μM and 100 μM. Then 10 ml of prepared solution was poured into sterile Petri dishes (85 mm in diameter) and kept in aseptic conditions while the agar solidified. The agar with 0.5% of DMSO served as a negative control. With the help of loop standard microbial cultures by 0.1 ml were poured on the surface of prepared agar with investigative compound. Then Petri dishes were kept for 24 hours in thermostatic conditions.
(§6) The minimal dilution, i.e. the lowest concentration in μg/mL of the investigative and comparison compounds that inhibited visible growth of microorganisms was the minimal inhibitory concentration (MIC).

[9] = test system: Bacillus cereus ATCC 8035; assay: Serial dilution on solid agar, B. cereus; details: ATCC8035, solid Mueller-Hinton agar, 24 hours
Description: as §4, §5, §6

[10] = test system: Candida albicans ATCC 60193; assay: Serial dilution on solid agar, C. albicans; details: ATCC60193, solid Mueller-Hinton agar, 24 hours
Description: as §4, §5, §6

EC50 [1]: 10.4 ± 3 µM
EC50 [2]: 12.4 ± 1.6 µM
EC50 [4]: > 100 µM
EC50 [5]: > 100 µM
MIC [8]: 1000 µM (≈ 462 µg/mL)
MIC [9]: 400 µM (≈ 185 µg/mL)
MIC [10]: 400 µM (≈ 185 µg/mL)
Structure (SMILES): Cc1cc(NS(=O)(=O)c2ccc(NCCC(=O)NN=Cc3ccc([N+](=O)[O-])o3)cc2)no1 [Compound 16b, N-(5-methylisoxazol-3-yl)-4-((3-(2-((5-nitrofuran-2-yl)methylene)hydrazineyl)-3-oxopropyl)amino)-benzenesulfonamide]
EC50 [3]: 9.5 ± 2.7 µM
sensitivity of S. aureus in liquid medium [6]: most sensitive
sensitivity of S. epidermidis in liquid medium [7]: most sensitive
